In ChEMBL document CHEMBL2057081, “Triterpenoid saponins from Xanthoceras sorbifolia Bunge and their inhibitory activity on human cancer cell lines” (Bioorg Med Chem Lett, 2012):

Tests used:
Format in all cases: functional, cell-based
[1] = Cytotoxicity against human A375-S2 cells by MTT assay
HeLa = test: Cytotoxicity against human HeLa cells by MTT assay
[2] = Cytotoxicity against human MDA231 cells by MTT assay; conditions: MDA-MB-231
BGC-823 = test: Cytotoxicity against human BGC823 cells by MTT assay
HT-1080 = test: Cytotoxicity against human HT1080 cells by MTT assay
A549 = test: Cytotoxicity against human A549 cells by MTT assay
PC-3 = test: Cytotoxicity against human PC3 cells by MTT assay
HepG2 = test: Cytotoxicity against human HepG2 cells by MTT assay
MCF7 = test: Cytotoxicity against human MCF7 cells by MTT assay
HEp-2 = test: Cytotoxicity against human Hep2 cells by MTT assay

Structure (SMILES)	IC50 [1] [µM]	IC50 (HeLa) [µM]	IC50 [2] [µM]	IC50 (BGC-823) [µM]	IC50 (HT-1080) [µM]	IC50 (A549) [µM]	IC50 (PC-3) [µM]	IC50 (HepG2) [µM]	IC50 (MCF7) [µM]	IC50 (HEp-2) [µM]
C/C=C(/C)C(=O)O[C@@H]1[C@@H](O)[C@H](O[C@H]2[C@H](OC(C)=O)[C@]3(CO)[C@H](O)C[C@]4(C)C(=CC[C@@H]5[C@@]6(C)CC[C@H](O[C@@H]7O[C@H](C(=O)O)[C@@H](O)[C@H](O)[C@H]7O[C@@H]7O[C@H](CO)[C@@H](O)[C@H](O)[C@H]7O)[C@](C)(CO)[C@@H]6CC[C@]54C)[C@@H]3CC2(C)C)O[C@H](C)[C@@H]1OC(C)=O [BUNKANKASAPONIN A]	18.1	22.2	12.2	17.5	16.3	41	13.1	22.2	12.7	17.6
C/C=C(/C)C(=O)O[C@@H]1[C@@H](O)[C@H](O[C@H]2[C@H](OC(C)=O)[C@]3(CO)[C@H](O)C[C@]4(C)C(=CC[C@@H]5[C@@]6(C)CC[C@H](O[C@@H]7O[C@H](C(=O)O)[C@@H](O)[C@H](O)[C@H]7O[C@@H]7O[C@H](CO)[C@@H](O)[C@H](O)[C@H]7O)[C@](C)(CO)[C@@H]6CC[C@]54C)[C@@H]3CC2(C)C)O[C@H](C)[C@@H]1OC(=O)/C(C)=C\C [BUNKANKASAPONIN B]	4.14	4.03	2.22	2.5	1.14	3.03	2.58	4.03	2.46	4.72
C/C=C(/C)C(=O)O[C@@H]1[C@@H](O)[C@H](O[C@H]2[C@H](O)[C@]3(COC(C)=O)[C@H](O)C[C@]4(C)C(=CC[C@@H]5[C@@]6(C)CC[C@H](O[C@@H]7O[C@H](C(=O)O)[C@@H](O)[C@H](O)[C@H]7O[C@@H]7O[C@H](CO)[C@@H](O)[C@H](O)[C@H]7O)[C@](C)(CO)[C@@H]6CC[C@]54C)[C@@H]3CC2(C)C)O[C@H](C)[C@@H]1OC(C)=O [BUNKANKASAPONIN C]	23.3	> 100	45.1	82.6	> 100	76.8	92.5	60.8	91.4	> 100
C/C=C(/C)C(=O)O[C@@H]1[C@@H](O)[C@H](O[C@H]2[C@H](O)[C@]3(COC(C)=O)[C@H](O)C[C@]4(C)C(=CC[C@@H]5[C@@]6(C)CC[C@H](O[C@@H]7O[C@H](C(=O)O)[C@@H](O)[C@H](O)[C@H]7O[C@@H]7O[C@H](CO)[C@@H](O)[C@H](O)[C@H]7O)[C@](C)(CO)[C@@H]6CC[C@]54C)[C@@H]3CC2(C)C)O[C@H](C)[C@@H]1OC(=O)/C(C)=C\C [BUNKANKASAPONIN D]	20.4	55.5	21.8	23.9	> 100	31.7	13.2	33.1	49.4	> 100
C/C=C(/C)C(=O)O[C@@H]1[C@@H](O)[C@H](O[C@H]2[C@H](OC(C)=O)[C@]3(CO)[C@H](O)C[C@]4(C)C(=CC[C@@H]5[C@@]6(C)CC[C@H](O[C@@H]7O[C@H](C(=O)O)[C@@H](O)[C@H](O)[C@H]7O[C@@H]7O[C@H](CO)[C@@H](O)[C@H](O)[C@H]7O)C(C)(C)[C@@H]6CC[C@]54C)[C@@H]3CC2(C)C)O[C@H](C)[C@@H]1OC(=O)/C(C)=C\C [BUNKANKASAPONIN F]	5.22	4.97	3.24	11.3	1.75	5.76	2.28	2.45	4.3	4.97
O=c1[nH]cc(F)c(=O)[nH]1 [FLUOROURACIL]	9.92	10.4	31.6	15.7	3.06	31.5	35.8	10.5	24.6	24.6
CC1(C)C[C@H]2C3=CC[C@@H]4[C@@]5(C)CC[C@H](O[C@@H]6O[C@H](CO[C@@H]7O[C@H](CO)[C@@H](O)[C@H](O)[C@H]7O)[C@@H](O)[C@H](O)[C@H]6O)C(C)(C)[C@@H]5CC[C@@]4(C)[C@]3(C)CC[C@@]2(CO[C@@H]2O[C@H](CO[C@@H]3O[C@H](CO)[C@@H](O)[C@H](O)[C@H]3O)[C@@H](O)[C@H](O)[C@H]2O[C@@H]2O[C@H](CO)[C@@H](O)[C@H](O)[C@H]2O)[C@@H](O)[C@@H]1O [SORBIFOLIASIDE A]	> 100	> 100	> 100	> 100	> 100	> 100	> 100	> 100	> 100	> 100
CC1(C)C[C@H]2C3=CC[C@@H]4[C@@]5(C)CC[C@H](O[C@@H]6O[C@H](CO[C@@H]7O[C@H](CO)[C@@H](O)[C@H](O)[C@H]7O)[C@@H](O)[C@H](O)[C@H]6O)C(C)(C)[C@@H]5CC[C@@]4(C)[C@]3(C)CC(=O)[C@@]2(CO[C@@H]2O[C@H](CO[C@@H]3O[C@H](CO)[C@@H](O)[C@H](O)[C@H]3O)[C@@H](O)[C@H](O)[C@H]2O[C@@H]2O[C@H](CO)[C@@H](O)[C@H](O)[C@H]2O)[C@@H](O)[C@@H]1O [SORBIFOLIASIDE B]	> 100	> 100	> 100	> 100	> 100	> 100	> 100	> 100	> 100	> 100
CC1(C)C[C@H]2C3=CC[C@@H]4[C@@]5(C)CC[C@H](O[C@@H]6O[C@H](CO[C@@H]7O[C@H](CO)[C@@H](O)[C@H](O)[C@H]7O)[C@@H](O)[C@H](O)[C@H]6O[C@@H]6O[C@H](CO)[C@@H](O)[C@H](O)[C@H]6O)C(C)(C)[C@@H]5CC[C@@]4(C)[C@]3(C)CC(=O)[C@@]2(CO[C@@H]2O[C@H](CO[C@@H]3O[C@H](CO)[C@@H](O)[C@H](O)[C@H]3O)[C@@H](O)[C@H](O)[C@H]2O)[C@@H](O)[C@@H]1O [SORBIFOLIASIDE C]	> 100	> 100	> 100	> 100	> 100	> 100	> 100	> 100	> 100	> 100
C/C=C(/C)C(=O)O[C@@H]1[C@@H](O)[C@H](O[C@H]2CC[C@]3(C)[C@H]4CC=C5[C@@H]6CC(C)(C)[C@@H](O)[C@H](O)[C@]6(CO[C@@H]6O[C@H](CO[C@@H]7O[C@H](CO)[C@@H](O)[C@H](O)[C@H]7O)[C@@H](O)[C@H](O)[C@H]6O)CC[C@@]5(C)[C@]4(C)CC[C@H]3C2(C)C)O[C@H](CO[C@@H]2O[C@H](CO)[C@@H](O)[C@H](O)[C@H]2O)[C@H]1O [SORBIFOLIASIDE D]	> 100	> 100	> 100	> 100	> 100	> 100	> 100	> 100	> 100	> 100
C/C=C(/C)C(=O)O[C@@H]1[C@@H](O)[C@H](O[C@H]2CC[C@]3(C)[C@H]4CC=C5[C@@H]6CC(C)(C)[C@@H](O)[C@H](O)[C@]6(CO[C@@H]6O[C@H](CO[C@@H]7O[C@H](CO)[C@@H](O)[C@H](O)[C@H]7O)[C@@H](O)[C@H](O)[C@H]6O)C(=O)C[C@@]5(C)[C@]4(C)CC[C@H]3C2(C)C)O[C@H](CO[C@@H]2O[C@H](CO)[C@@H](O)[C@H](O)[C@H]2O)[C@H]1O [SORBIFOLIASIDE E]	> 100	> 100	> 100	> 100	> 100	> 100	> 100	> 100	> 100	> 100
C/C=C(/C)C(=O)O[C@@H]1[C@@H](O)[C@H](O[C@H]2CC[C@]3(C)[C@H]4CC=C5[C@@H]6CC(C)(C)[C@@H](O)[C@H](O)[C@]6(CO[C@@H]6O[C@H](CO[C@@H]7O[C@H](CO)[C@@H](O)[C@H](O)[C@H]7O)[C@@H](O)[C@H](O)[C@H]6O[C@@H]6O[C@H](CO)[C@@H](O)[C@H](O)[C@H]6O)CC[C@@]5(C)[C@]4(C)CC[C@H]3C2(C)C)O[C@H](CO[C@@H]2O[C@H](CO)[C@@H](O)[C@H](O)[C@H]2O)[C@H]1OC(C)=O [SORBIFOLIASIDE F]	> 100	> 100	> 100	> 100	> 100	> 100	> 100	> 100	> 100	> 100
C[C@@H]1O[C@@H](O[C@H]2[C@H](OC[C@@]34CC[C@]5(C)C(=CC[C@@H]6[C@@]7(C)CC[C@H](O[C@@H]8O[C@H](CO[C@@H]9O[C@H](CO)[C@@H](O)[C@H](O)[C@H]9O)[C@@H](O)[C@H](O)[C@H]8O)C(C)(C)[C@@H]7CC[C@]65C)[C@@H]3CC(C)(C)[C@@H](O)[C@@H]4O)O[C@H](CO[C@@H]3O[C@H](CO)[C@@H](O)[C@H](O)[C@H]3O)[C@@H](O)[C@@H]2O)[C@H](O)[C@H](O)[C@H]1O [XANIFOLIA O54]	> 100	> 100	> 100	> 100	> 100	> 100	> 100	> 100	> 100	> 100
